Measured values taken from patent US20230257376A1, “ROCK INHIBITOR, AND PREPARATION METHOD THEREFOR AND USE THEREOF” (WUHAN LL SCIENCE AND TECHNOLOGY DEVELOPMENT CO., LTD., priority 2020, published 2023).
pIC50: −log10 of the molar value.

Tests used:
[1] = target: T1, ROCK2 kinase (Homo sapiens, UniProt O75116); assay: In vitro evaluation of ROCK2 kinase activity (HTRF KinEASE-STK time-resolved fluorometric assay); type: biochemical; conditions: ROCK2 kinase 0.4 ng/μL, ATP 6.739 μM
T1 construct: purchased Invitrogen PV3759
T1 sequence (O75116 whole entry): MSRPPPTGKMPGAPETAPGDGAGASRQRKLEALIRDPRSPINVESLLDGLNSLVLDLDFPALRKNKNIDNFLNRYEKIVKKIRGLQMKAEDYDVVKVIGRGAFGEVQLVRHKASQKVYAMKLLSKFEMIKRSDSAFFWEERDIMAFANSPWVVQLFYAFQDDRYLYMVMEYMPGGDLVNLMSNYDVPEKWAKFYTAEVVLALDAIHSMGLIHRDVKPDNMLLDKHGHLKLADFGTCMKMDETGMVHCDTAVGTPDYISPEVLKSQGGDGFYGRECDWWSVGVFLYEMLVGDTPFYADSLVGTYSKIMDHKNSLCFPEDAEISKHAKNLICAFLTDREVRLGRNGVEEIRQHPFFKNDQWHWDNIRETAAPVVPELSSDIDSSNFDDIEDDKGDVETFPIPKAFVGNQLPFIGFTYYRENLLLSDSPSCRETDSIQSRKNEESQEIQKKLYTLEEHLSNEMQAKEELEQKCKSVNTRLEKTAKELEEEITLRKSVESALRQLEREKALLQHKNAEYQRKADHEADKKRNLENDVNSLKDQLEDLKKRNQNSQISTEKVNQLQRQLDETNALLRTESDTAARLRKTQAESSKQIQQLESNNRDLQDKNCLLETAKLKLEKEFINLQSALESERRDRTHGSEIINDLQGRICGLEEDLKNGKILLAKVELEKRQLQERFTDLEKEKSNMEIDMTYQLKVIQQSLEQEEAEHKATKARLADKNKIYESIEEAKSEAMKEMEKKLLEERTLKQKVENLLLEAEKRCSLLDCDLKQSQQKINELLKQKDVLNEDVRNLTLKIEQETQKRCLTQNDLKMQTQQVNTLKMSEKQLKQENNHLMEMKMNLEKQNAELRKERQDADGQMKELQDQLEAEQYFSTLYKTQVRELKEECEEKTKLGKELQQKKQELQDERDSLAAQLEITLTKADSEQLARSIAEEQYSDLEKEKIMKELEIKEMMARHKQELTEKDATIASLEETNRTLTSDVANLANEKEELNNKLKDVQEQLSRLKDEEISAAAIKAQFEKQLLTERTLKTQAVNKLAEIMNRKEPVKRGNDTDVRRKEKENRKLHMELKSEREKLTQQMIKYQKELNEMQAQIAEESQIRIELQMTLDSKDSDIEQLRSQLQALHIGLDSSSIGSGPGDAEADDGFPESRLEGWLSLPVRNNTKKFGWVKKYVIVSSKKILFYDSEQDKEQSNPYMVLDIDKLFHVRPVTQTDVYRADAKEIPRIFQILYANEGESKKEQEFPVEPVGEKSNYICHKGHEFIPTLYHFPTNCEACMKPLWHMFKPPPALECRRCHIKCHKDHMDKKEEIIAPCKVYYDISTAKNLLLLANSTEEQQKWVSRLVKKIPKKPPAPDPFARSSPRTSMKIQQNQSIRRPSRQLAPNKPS
Method: ROCK2 activity screening. ROCK2 activity was detected using a 96-well (Cisbio) time-resolved fluorometric assay. The assay for ROCK2 was performed in the following assay buffer: 5 mM MgCl2 (Sigma), 1 mM DTT (Sigma) and 1× kinase buffer. The kinase buffer was used for dilution. 7.5 μL of ROCK2 kinase (Invitrogen, PV3759) was added to a 96-well microplate to reach a final concentration of 0.4 ng/μL, and then 0.25 μL of test compound (DMSO content: 1% (volume fraction)) was added. The mixture was incubated at room temperature for 0.5 h. To start the reaction, the kinase buffer was used to mix ATP (Aladdin) and the substrate STK-substrate 2-biotin. 7.5 μL of the mixed solution was added to the microplate to reach final concentrations of 6.739 μM and 1 μM. The resulting mixture was incubated at room temperature for 2 h. 5 mL of detection buffer was mixed with STK antibody-Cryptate, and then an appropriate volume of the mixture was mixed with an equal volume of streptavidin-XL665. 10 μL of the resulting mixture was added to the microplate to stop the reaction. After further incubation for about 1 h, the microplate was read on a Molecular Devices SpectraMax i3x multifunctional microplate reader. The kinase buffer, the STK-substrate 2-biotin, the detection buffer, the STK antibody-Cryptate, and the streptavidin-XL665 were all from HTRF KinEASE-STK kit (Cisbio, 1000 tests, 61GSTXLA).

[2] = In vitro metabolic stability, human liver microsome incubation; type: in vitro ADME; conditions: liver microsomes, 1 mg/mL protein, 37° C., read-out: T1/2 in human liver microsome
Method: (§1) The in vitro metabolic stability of the compounds disclosed herein was determined through incubation of liver microsomes of various species. A proper amount of test compound was added into a liver microsome reaction system (1 mg/mL liver microsome protein, 25 U/mL glucose-6 phosphate dehydrogenase, 1 mM NADP, 6 mM D-glucose 6-phosphate and 5 mM MgCl2), and then the mixture was incubated in a water bath kettle at 37° C. to start reaction. At each time point, 100 μL of the reaction liquid was added into a centrifuge tube containing 400 μL of internal standard working solution (containing a 200 ng/mL solution of dexamethasone, diclofenac, tolbutamide and labetalol in acetonitrile) precooled at 0° C. so as to stop the reaction, and the mixture was then centrifuged at 10,000 g for 10 min at 4° C. The supernatant was collected for LC-MS assay so as to obtain the values of in vitro metabolic half-life of the test compounds in liver microsomes of various species.

[3] = In vitro metabolic stability, guinea pig liver microsome incubation; type: in vitro ADME; conditions: liver microsomes, 1 mg/mL protein, 37° C., read-out: T1/2 in guinea pig liver microsome
Method: as §1

[4] = In vitro cytotoxicity assay in HepG2 cells using the CCK-8 method; type: cell-based; conditions: human
Method: In vitro cytotoxicity assay for the compounds disclosed herein was performed in HepG2 cells using the CCK-8 method. HepG2 cells (Beina Bio) in the logarithmic growth phase were collected, the concentration of cell suspension was adjusted, and then the cells were plated on a 96-well cell culture plate at 50,000 cells/well. The cells were then incubated overnight in a cell incubator (5%, 37° C.), and after 80-90% cell confluence was achieved, test compound at each concentration gradient or vehicle (DMSO) was added after medium change. The resulting mixture was incubated in the cell incubator (5%, 37° C.) for 48 h. After the treatment, the medium in the plate was discarded. The plate was washed twice with PBS, added with CCK-8 working solution (Beyotime) at 100 μL per well, and then incubated at 37° C. for 1.5 h in the dark. Absorbance at OD450 nm mil was measured for each well on a microplate reader, and CC50 value of each compound was analyzed and calculated.

[5] = In vitro metabolic stability, rat liver microsome incubation; type: in vitro ADME; conditions: liver microsomes, 1 mg/mL protein, 37° C., read-out: T1/2 in rat liver microsome
Method: as §1

[6] = target: T2, ROCK1 kinase (Homo sapiens, UniProt Q13464); assay: In vitro evaluation of ROCK1 kinase selectivity (HTRF KinEASE-STK time-resolved fluorometric assay); type: biochemical; conditions: ROCK1 kinase 0.4 ng/μL, ATP 3.53 μM
T2 construct: purchased Invitrogen
T2 sequence (Q13464 whole entry): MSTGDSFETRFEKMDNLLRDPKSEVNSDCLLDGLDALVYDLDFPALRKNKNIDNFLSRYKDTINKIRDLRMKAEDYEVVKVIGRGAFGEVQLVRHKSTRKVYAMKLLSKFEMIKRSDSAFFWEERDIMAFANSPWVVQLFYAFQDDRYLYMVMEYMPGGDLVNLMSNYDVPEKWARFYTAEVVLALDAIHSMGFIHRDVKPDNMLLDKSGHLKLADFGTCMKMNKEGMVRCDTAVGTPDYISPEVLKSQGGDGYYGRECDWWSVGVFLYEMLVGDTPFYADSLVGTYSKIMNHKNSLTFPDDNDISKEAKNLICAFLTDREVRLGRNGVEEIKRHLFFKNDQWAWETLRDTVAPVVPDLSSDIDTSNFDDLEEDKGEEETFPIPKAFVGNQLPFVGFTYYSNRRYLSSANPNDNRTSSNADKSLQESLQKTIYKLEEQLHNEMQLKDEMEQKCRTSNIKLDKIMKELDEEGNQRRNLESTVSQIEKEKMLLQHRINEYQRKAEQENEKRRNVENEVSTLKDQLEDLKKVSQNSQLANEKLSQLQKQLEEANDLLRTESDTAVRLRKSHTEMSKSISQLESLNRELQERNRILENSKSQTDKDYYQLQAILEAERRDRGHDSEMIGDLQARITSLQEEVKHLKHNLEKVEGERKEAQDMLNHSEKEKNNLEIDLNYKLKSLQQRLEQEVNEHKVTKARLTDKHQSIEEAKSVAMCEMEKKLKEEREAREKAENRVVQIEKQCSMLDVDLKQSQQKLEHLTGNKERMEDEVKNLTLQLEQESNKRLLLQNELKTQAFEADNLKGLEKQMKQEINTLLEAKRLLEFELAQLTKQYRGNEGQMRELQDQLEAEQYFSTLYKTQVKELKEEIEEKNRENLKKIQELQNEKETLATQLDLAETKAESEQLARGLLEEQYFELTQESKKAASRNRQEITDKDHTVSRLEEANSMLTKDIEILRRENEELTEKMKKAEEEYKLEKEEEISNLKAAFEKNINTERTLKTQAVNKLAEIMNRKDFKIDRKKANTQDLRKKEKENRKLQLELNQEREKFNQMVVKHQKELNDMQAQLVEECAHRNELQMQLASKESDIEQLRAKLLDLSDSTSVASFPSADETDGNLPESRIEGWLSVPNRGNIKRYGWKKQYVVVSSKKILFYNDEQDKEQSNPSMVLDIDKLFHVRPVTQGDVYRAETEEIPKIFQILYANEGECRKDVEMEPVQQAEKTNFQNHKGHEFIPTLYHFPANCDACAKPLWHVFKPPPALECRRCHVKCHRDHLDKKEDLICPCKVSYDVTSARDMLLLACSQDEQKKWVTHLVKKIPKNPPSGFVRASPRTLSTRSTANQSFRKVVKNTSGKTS
Method: ROCK1 activity was detected using a 96-well (Cisbio) time-resolved fluorometric assay. The assay for ROCK1 was performed in the following assay buffer: 5 mM MgCl2 (Sigma), 1 mM DTT (Sigma) and 1× kinase buffer. The kinase buffer was used for dilution. 7.5 μL of ROCK1 kinase (Invitrogen) was added to a 96-well microplate to reach a final concentration of 0.4 ng/μL, and then 0.25 μL of test compound (DMSO content: 1%) was added. The mixture was incubated at room temperature for 0.5 h. To start the reaction, the kinase buffer was also used to mix ATP (Aladdin) and the substrate STK-substrate 2-biotin. 7.5 μL of the mixed solution was added to the microplate to reach final concentrations of 3.53 μM and 1 μM. The resulting mixture was incubated at room temperature for 2 h. 5 mL of detection buffer was mixed with STK antibody-Cryptate, and then an appropriate volume of the mixture was mixed with an equal volume of streptavidin-XL665. 10 μL of the resulting mixture was added to stop the reaction. After further incubation for about 1 h, the microplate was read on a Molecular Devices SpectraMax i3x multifunctional microplate reader. The kinase buffer, the STK-substrate 2-biotin, the detection buffer, the STK antibody-Cryptate, and the streptavidin-XL665 were all from HTRF KinEASE-STK kit (Cisbio, 1000 tests, 61GSTXLA).

| pIC50 [1] | half-life [2] [h] | half-life [3] [h] | half-life [5] [h] | pIC50 [6] | SMILES | CC50 at 48 h [4] [µM] |
| --- | --- | --- | --- | --- | --- | --- |
| 6.30 to 7.30 | 7.3 | 5.81 | 5.75 | < 5.35 | Cn1c(C(=O)N2CC(F)(F)C2)cc2c1CN(c1nc(C#N)cc(Nc3ccc(-c4cn[nH]c4)cc3)n1)CC2 [Compound L042] | 27.9 |
| – | 1.52 | 1.61 | 0.287 | – | CC(C)NC(=O)COc1cccc(-c2nc(Nc3ccc4[nH]ncc4c3)c3ccccc3n2)c1 [KD-025, reference compound] | – |
| < 5.35 | – | – | – | < 5.35 | O=C(c1cc2c(n1C(F)F)CN(c1ncnc(Nc3ccc(-c4cn[nH]c4)cc3)n1)CC2)N1CC(F)(F)C1 [Compound L045, (6-(4-((4-(1H-pyrazol-4-yl)phenyl)amino)-1,3,5-triazin-2-yl)-1-(difluoromethyl)-4,5,6,7-tetrahydro-1H-pyrrolo[2,3-c]pyridin-2-yl)(3,3-difluoroazetidin-1-yl)methanone] | > 100 |
| ≥ 7.30 | 2.61 | 1 | 0.554 | < 5.35 | Cn1c(C(=O)N2CC(F)(F)C2)cc2c1CN(c1nncc(Nc3ccc(-c4cn[nH]c4)cc3)n1)CC2 [Compound L037, (6-(5-((4-(1H-pyrazol-4-yl)phenyl)amino)-1,2,4-triazin-3-yl)-1-methyl-4,5,6,7-tetrahydro-1H-pyrrolo(2,3-c)pyridin-2-yl)(3,3-difluoroazetidin-1-yl)methanone] | > 100 |
| ≥ 7.30 | – | – | – | < 5.35 | Cn1c(C(=O)N2CC(F)(F)C2)cc2c1CN(c1nc3c(c(Nc4ccc(-c5cn[nH]c5)cc4)n1)COCC3)CC2 [Compound L031] | 33.4 |
| 6.30 to 7.30 | 1.87 | 1.42 | 1.34 | – | COc1nnc(N2CCc3cc(C(=O)N4CC(F)(F)C4)n(C)c3C2)nc1Nc1ccc(-c2cn[nH]c2)cc1 [Compound L043, (6-(5-((4-(1H-pyrazol-4-yl)phenyl)amino)-6-methoxy-1,2,4-triazin-3-yl)-1-methyl-4,5,6,7-tetrahydro-1H-pyrrolo[2,3-c]pyridin-2-yl)(3,3-difluoroazetidin-1-yl)methanone] | > 100 |
| ≥ 7.30 | – | – | – | < 5.35 | Cn1c(C(=O)N2CC(F)(F)C2)cc2c1CN(c1ncc(C#N)c(Nc3ccc(-c4cn[nH]c4)cc3)n1)CC2 [Compound L034, 4-((4-(1H-pyrazol-4-yl)phenyl)amino)-2-(2-(3,3-difluoroazetidin-1-carbonyl)-1-methyl-4,5-dihydro-1H-pyrrolo[2,3-c]pyridin-6(7H)-yl)pyrimidine-5-carbonitrile] | – |
| 5.35 to 6.30 | – | – | – | < 5.35 | CCc1nc(Nc2ccc(-c3cn[nH]c3)cc2)nc(N2CCc3cc(C(=O)N4CC(F)(F)C4)n(C)c3C2)n1 [Compound L048, (6-(4-((4-(1H-pyrazol-4-yl)phenyl)amino)-6-ethyl-1,3,5-triazin-2-yl)-1-methyl-4,5,6,7-tetrahydro-1H-pyrrolo[2,3-c]pyridin-2-yl)(3,3-difluoroazetidin-1-yl)methanone] | 100 |
| 5.35 to 6.30 | – | – | – | < 5.35 | O=C(c1ccc2c(c1)CN(c1nccc(Nc3ccc(-c4cn[nH]c4)cc3)n1)CC2)N1CC(F)(F)C1 [Compound L028, (2-(4-((4-(1H-pyrazol-4-yl)phenyl)amino)pyrimidin-2-yl)-1,2,3,4-tetrahydroisoquinolin-7-yl)(3,3-difluoroazetidin-1-yl)methanone] | – |
| 6.30 to 7.30 | – | – | – | < 5.35 | Cn1c(C(=O)N2CC(F)(F)C2)cc2c1CN(c1nc3c(c(Nc4ccc(-c5cn[nH]c5)cc4)n1)CCC3)CC2 [Compound L053, (6-(4-((4-(1H-pyrazol-4-yl)phenyl)amino)-6,7-dihydro-5H-cyclopenta[d]pyrimidin-2-yl)-1-methyl-4,5,6,7-tetrahydro-1H-pyrrolo[2,3-c]pyridin-2-yl)(3,3-difluoroazetidin-1-yl)methanone] | – |
| 5.35 to 6.30 | – | – | – | < 5.35 | O=C(c1ccc2c(cnn2-c2nccc(Nc3ccc(-c4cn[nH]c4)cc3)n2)c1)N1CC(F)(F)C1 [Compound L055] | – |
| ≥ 7.30 | – | – | – | < 5.35 | Cn1c(C(=O)N2CC(C#N)C2)cc2c1CN(c1nccc(Nc3ccc(-c4cn[nH]c4)cc3)n1)CC2 [Compound L010, 1-(6-(4-((4-(1H-pyrazol-4-yl)phenyl)amino)pyrimidin-2-yl)-1-methyl-4,5,6,7-tetrahydro-1H-pyrrolo[2,3-c]pyridin-2-carbonyl)azetidine-3-carbonitrile] | – |
| ≥ 7.30 | – | – | – | < 5.35 | Cn1c(C(=O)N2CC(F)(F)C2)cc2c1CN(c1nccc(Nc3ccc(-c4c[nH]nc4F)c(F)c3)n1)CC2 [Compound L016, (3,3-difluoroazetidin-1-yl)(6-(4-((3-fluoro-4-(3-fluoro-1H-pyrazol-4-yl)phenyl)amino)pyrimidin-2-yl)-1-methyl-4,5,6,7-tetrahydro-1H-pyrrolo[2,3-c]pyridin-2-yl)methanone] | – |
| 6.30 to 7.30 | – | – | – | 6.30 to 7.30 | Cn1c(C(=O)Nc2ccnnc2)cc2c1CN(c1nccc(Nc3ccc(-c4cn[nH]c4)cc3)n1)CC2 [Compound L012, 6-(4-((4-(1H-pyrazol-4-yl)phenyl)amino)pyrimidin-2-yl)-1-methyl-N-(pyridazin-4-yl)-4,5,6,7-tetrahydro-1H-pyrrolo[2,3-c]pyridine-2-carboxamide] | – |
| 6.30 to 7.30 | – | – | – | 5.35 to 6.30 | Cn1c(C(=O)N2CC(F)(F)C2)cc2c1CN(c1nccc(Nc3ccc4[nH]ncc4c3)n1)CC2 [Compound L006, (6-(4-((1H-indazol-5-yl)amino)pyrimidin-2-yl)-1-methyl-4,5,6,7-tetrahydro-1H-pyrrol[2,3-c]pyridin-2-yl)(3,3-difluoroazetidin-1-yl)methanone] | – |
| ≥ 7.30 | – | – | – | 5.35 to 6.30 | Cn1c(C(=O)N2C[C@@H](O)[C@@H](F)C2)cc2c1CN(c1nccc(Nc3ccc(-c4cn[nH]c4)cc3)n1)CC2 [Compound L024] | – |
| 6.30 to 7.30 | – | – | – | < 5.35 | Cn1c(C(=O)N2CC(F)(F)C2)cc2c1C(C)(C)N(c1nccc(Nc3ccc(-c4cn[nH]c4)cc3)n1)CC2 [Compound L018] | – |
| < 5.35 | – | – | – | < 5.35 | O=C(c1cc2c(n1C(F)F)CN(c1ncc(F)c(Nc3ccc(-c4cn[nH]c4)cc3)n1)CC2)N1CC(F)(F)C1 [Compound L047, (6-(4-((4-(1H-pyrazol-4-yl)phenyl)amino)-5-fluoropyrimidin-2-yl)-1-(difluoromethyl)-4,5,6,7-tetrahydro-1H-pyrrolo[2,3-c]pyridin-2-yl)(3,3-difluoroazetidin-1-yl)methanone] | > 100 |
